{"source": "ChEMBL document CHEMBL2331386", "about": "“Design, synthesis and SAR of piperidyl-oxadiazoles as 11β-hydroxysteroid dehydrogenase 1 inhibitors” (Eur J Med Chem, 2013)", "key": {"[1]": {"experiment": "(§1) AUC (0 to t) in rat at 6 mg/kg, po", "format": "ADME, organism-based, Plasma", "design": "dose 6 mg/kg, route oral", "conditions": "plasma"}, "[2]": {"experiment": "Half life in rat at 6 mg/kg, po", "format": "ADME, organism-based", "design": "dose 6 mg/kg, route oral", "conditions": "in vivo"}, "[3]": {"experiment": "(§2) Clearance in rat at 3 mg/kg, iv", "format": "ADME, organism-based", "design": "dose 3 mg/kg, route intravenous", "conditions": "in vivo"}, "CYP2D6": {"molecular_target": "CYP2D6 (Homo sapiens, UniProt P10635)", "sequence (P10635 whole entry)": "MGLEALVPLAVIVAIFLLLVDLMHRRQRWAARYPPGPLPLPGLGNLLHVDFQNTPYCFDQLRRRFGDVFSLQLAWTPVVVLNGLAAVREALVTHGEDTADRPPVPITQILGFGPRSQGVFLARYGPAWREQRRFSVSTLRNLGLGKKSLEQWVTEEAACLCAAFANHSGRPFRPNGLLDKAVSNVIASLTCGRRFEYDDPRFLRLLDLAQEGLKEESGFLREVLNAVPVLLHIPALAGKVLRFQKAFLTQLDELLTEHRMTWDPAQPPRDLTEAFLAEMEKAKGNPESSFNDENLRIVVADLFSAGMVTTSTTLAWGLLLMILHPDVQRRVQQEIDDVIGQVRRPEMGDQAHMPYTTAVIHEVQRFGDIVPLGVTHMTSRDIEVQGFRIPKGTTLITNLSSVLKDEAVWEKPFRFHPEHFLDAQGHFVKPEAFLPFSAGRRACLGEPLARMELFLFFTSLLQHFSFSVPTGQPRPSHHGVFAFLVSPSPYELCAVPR", "experiment": "Inhibition of CYP2D6 in human microsomes using dextrpmethorphan as substrate at 10 uM after 5 mins", "format": "ADME, Microsome", "conditions": "probe dextromethorphan (printed: dextrpmethorphan)"}, "CYP3A4": {"molecular_target": "CYP3A4 (Homo sapiens, UniProt P08684)", "sequence (P08684 whole entry)": "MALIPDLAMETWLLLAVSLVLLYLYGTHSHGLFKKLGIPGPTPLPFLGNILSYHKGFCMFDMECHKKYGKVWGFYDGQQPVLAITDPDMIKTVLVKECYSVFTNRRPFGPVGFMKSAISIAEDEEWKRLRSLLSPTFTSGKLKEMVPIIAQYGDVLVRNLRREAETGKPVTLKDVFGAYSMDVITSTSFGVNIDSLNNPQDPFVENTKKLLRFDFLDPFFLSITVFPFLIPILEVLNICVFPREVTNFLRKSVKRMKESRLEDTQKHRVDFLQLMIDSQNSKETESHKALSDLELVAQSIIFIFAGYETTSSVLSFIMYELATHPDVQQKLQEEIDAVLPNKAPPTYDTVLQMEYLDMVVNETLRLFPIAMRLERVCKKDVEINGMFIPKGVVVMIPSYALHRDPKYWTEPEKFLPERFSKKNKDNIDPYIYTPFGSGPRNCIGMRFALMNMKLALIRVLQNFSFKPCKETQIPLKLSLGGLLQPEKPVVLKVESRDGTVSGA", "experiment": "Inhibition of CYP3A4 in human microsomes using midazolam as substrate at 10 uM after 5 mins", "format": "ADME, Microsome", "conditions": "probe midazolam"}, "[4]": {"experiment": "Intrinsic clearance in human liver microsomes at 1 uM preincubated for 5 mins measured per mg protein by LC/MS/MS analysis", "format": "ADME, Microsome", "conditions": "read-out: CLH"}, "CYP1A2": {"molecular_target": "T1, CYP1A2 (Homo sapiens, UniProt P05177)", "T1 sequence (P05177 whole entry)": "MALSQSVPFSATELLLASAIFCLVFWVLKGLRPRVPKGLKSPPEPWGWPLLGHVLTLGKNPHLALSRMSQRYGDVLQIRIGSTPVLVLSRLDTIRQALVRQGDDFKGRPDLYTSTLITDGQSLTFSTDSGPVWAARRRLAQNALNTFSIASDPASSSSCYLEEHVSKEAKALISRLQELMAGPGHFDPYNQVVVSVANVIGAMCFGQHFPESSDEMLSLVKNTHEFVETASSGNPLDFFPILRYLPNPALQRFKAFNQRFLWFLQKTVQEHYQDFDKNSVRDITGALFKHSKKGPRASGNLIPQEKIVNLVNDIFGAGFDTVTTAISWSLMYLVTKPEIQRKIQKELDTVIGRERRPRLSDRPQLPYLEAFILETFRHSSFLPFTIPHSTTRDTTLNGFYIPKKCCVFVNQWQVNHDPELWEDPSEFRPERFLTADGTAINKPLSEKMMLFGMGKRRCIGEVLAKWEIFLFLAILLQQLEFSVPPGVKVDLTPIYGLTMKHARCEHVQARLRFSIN", "experiment": "Inhibition of CYP1A2 in human microsomes using phenacetin as substrate at 10 uM after 5 mins", "format": "ADME, Microsome", "conditions": "probe phenacetin"}, "[5]": {"molecular_target": "11-beta-hydroxysteroid dehydrogenase 1 (Homo sapiens, UniProt P28845)", "sequence (P28845 whole entry)": "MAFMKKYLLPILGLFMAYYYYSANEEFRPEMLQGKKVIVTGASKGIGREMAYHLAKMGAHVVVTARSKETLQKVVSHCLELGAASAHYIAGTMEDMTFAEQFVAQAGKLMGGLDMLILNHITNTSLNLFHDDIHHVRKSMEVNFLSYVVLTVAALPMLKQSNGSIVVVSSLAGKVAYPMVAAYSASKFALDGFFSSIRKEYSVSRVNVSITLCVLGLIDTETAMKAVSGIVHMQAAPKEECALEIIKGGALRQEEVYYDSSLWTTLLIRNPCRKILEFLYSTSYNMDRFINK", "experiment": "Inhibition of human 11-beta HSD1 transfected in HEK293 cell microsomes assessed as decrease in [3H]cortisol generation using [3H]cortisone as substrate measured after 60 mins by scintillation proximity assay", "design": "species or system Microsome"}, "[6]": {"experiment": "(§3) Oral bioavailability in rat at 6 mg/kg", "format": "ADME, organism-based", "conditions": "in vivo"}, "Rattus norvegicus [7]": {"tested_on": "Rattus norvegicus", "experiment": "as §1", "format": "ADME, organism-based, Plasma", "design": "dose 6 mg/kg, route oral", "conditions": "in vivo"}, "Rattus norvegicus [8]": {"tested_on": "Rattus norvegicus", "experiment": "as §2", "format": "ADME, organism-based", "design": "dose 3 mg/kg, route intravenous", "conditions": "in vivo"}, "Rattus norvegicus [9]": {"tested_on": "Rattus norvegicus", "experiment": "as §3", "format": "ADME, organism-based", "conditions": "in vivo"}}, "data": [{"smiles": "Cc1c(Cl)cccc1S(=O)(=O)N1CCC[C@H](C(=O)NC2CCCCC2)C1", "values": [{"measurement": "AUC(0-t)", "setting": "[1]", "value": 0.188, "unit": "µM·h"}, {"measurement": "half-life", "setting": "[2]", "value": 0.4, "unit": "h"}, {"measurement": "clearance", "setting": "[3]", "value": 130, "unit": "mL/min/kg"}, {"measurement": "inhibition at 5 min, 10 µM", "setting": "CYP2D6", "value": 34, "unit": "%"}, {"measurement": "inhibition at 5 min, 10 µM", "setting": "CYP3A4", "value": 73, "unit": "%"}, {"measurement": "microsomal CLint at 1 µM", "setting": "[4]", "value": 209, "unit": "µL/min/mg"}, {"measurement": "inhibition at 5 min, 10 µM", "setting": "CYP1A2", "value": 16, "unit": "%"}, {"measurement": "IC50", "setting": "[5]", "value": 0.8, "unit": "nM"}, {"measurement": "bioavailability", "setting": "[6]", "value": 8, "unit": "%"}]}, {"smiles": "Cc1c(Cl)cccc1C(=O)N1CCC[C@H](c2nc(-c3ccc(Br)cc3)no2)C1", "values": [{"measurement": "IC50", "setting": "[5]", "value": "> 1000", "unit": "nM"}]}, {"smiles": "Cc1c(Cl)cccc1C(=O)N1CCC[C@H](c2nc(-c3cccc(Br)c3)no2)C1", "values": [{"measurement": "IC50", "setting": "[5]", "value": 310, "unit": "nM"}]}, {"smiles": "Cc1c(Cl)cccc1C(=O)N1CCC[C@H](c2nc(-c3ccccc3Br)no2)C1", "values": [{"measurement": "IC50", "setting": "[5]", "value": 825, "unit": "nM"}]}, {"smiles": "Cc1c(Cl)cccc1C(=O)N1CCC[C@H](c2nc(-c3ccccc3Cl)no2)C1", "values": [{"measurement": "IC50", "setting": "[5]", "value": 277, "unit": "nM"}]}, {"smiles": "Cc1c(Cl)cccc1C(=O)N1CCC[C@H](c2nc(-c3cccs3)no2)C1", "values": [{"measurement": "IC50", "setting": "[5]", "value": "> 1000", "unit": "nM"}]}, {"smiles": "Cc1c(Cl)cccc1C(=O)N1CCC[C@H](c2nc(-c3ccc(F)cc3)no2)C1", "values": [{"measurement": "IC50", "setting": "[5]", "value": 956, "unit": "nM"}]}, {"smiles": "Cc1c(Cl)cccc1C(=O)N1CCC[C@H](c2nc(C3CCCCC3)no2)C1", "values": [{"measurement": "IC50", "setting": "[5]", "value": 621, "unit": "nM"}]}, {"smiles": "Cc1c(Cl)cccc1C(=O)N1CCC[C@H](c2nc(C34CC5CC(CC(C5)C3)C4)no2)C1", "values": [{"measurement": "IC50", "setting": "[5]", "value": "> 1000", "unit": "nM"}]}, {"smiles": "CC1(C)C(C(=O)N2CCC[C@H](c3nc(-c4ccccc4)no3)C2)C1(C)C", "values": [{"measurement": "IC50", "setting": "[5]", "value": 793, "unit": "nM"}]}, {"smiles": "O=C(C1CC1)N1CCC[C@H](c2nc(-c3ccccc3)no2)C1", "values": [{"measurement": "IC50", "setting": "[5]", "value": 92, "unit": "nM"}]}, {"smiles": "O=C(C1CCC1)N1CCC[C@H](c2nc(-c3ccccc3)no2)C1", "values": [{"measurement": "IC50", "setting": "[5]", "value": 326, "unit": "nM"}]}, {"smiles": "O=C(C1CCCCC1)N1CCC[C@H](c2nc(-c3ccccc3)no2)C1", "values": [{"measurement": "AUCt", "setting": "Rattus norvegicus [7]", "value": 25.3, "unit": "µM·min"}, {"measurement": "half-life", "setting": "[2]", "value": 1.3, "unit": "h"}, {"measurement": "CL", "setting": "Rattus norvegicus [8]", "value": 24, "unit": "mL/min/kg"}, {"measurement": "inhibition at 5 min, 10 µM", "setting": "CYP2D6", "value": 12, "unit": "%"}, {"measurement": "inhibition at 5 min, 10 µM", "setting": "CYP3A4", "value": 7.7, "unit": "%"}, {"measurement": "microsomal CLint at 1 µM", "setting": "[4]", "value": 44, "unit": "µL/min/mg"}, {"measurement": "inhibition at 5 min, 10 µM", "setting": "CYP1A2", "value": 16, "unit": "%"}, {"measurement": "IC50", "setting": "[5]", "value": 71, "unit": "nM"}, {"measurement": "F", "setting": "Rattus norvegicus [9]", "value": 36, "unit": "%"}]}, {"smiles": "O=C(C1CCCCCC1)N1CCC[C@H](c2nc(-c3ccccc3)no2)C1", "values": [{"measurement": "IC50", "setting": "[5]", "value": 1480, "unit": "nM"}]}, {"smiles": "Cn1ccc2c(C(=O)N3CCC[C@H](c4nc(-c5ccccc5)no4)C3)cccc21", "values": [{"measurement": "IC50", "setting": "[5]", "value": 141, "unit": "nM"}]}, {"smiles": "Cn1cccc1C(=O)N1CCC[C@H](c2nc(-c3ccccc3)no2)C1", "values": [{"measurement": "IC50", "setting": "[5]", "value": 715, "unit": "nM"}]}, {"smiles": "O=C(c1ccco1)N1CCC[C@H](c2nc(-c3ccccc3)no2)C1", "values": [{"measurement": "IC50", "setting": "[5]", "value": 659, "unit": "nM"}]}, {"smiles": "Cc1c(Br)cccc1C(=O)N1CCC[C@H](c2nc(-c3ccccc3)no2)C1", "values": [{"measurement": "AUCt", "setting": "Rattus norvegicus [7]", "value": 34.1, "unit": "µM·min"}, {"measurement": "half-life", "setting": "[2]", "value": 2.1, "unit": "h"}, {"measurement": "CL", "setting": "Rattus norvegicus [8]", "value": 16, "unit": "mL/min/kg"}, {"measurement": "inhibition at 5 min, 10 µM", "setting": "CYP2D6", "value": 0, "unit": "%"}, {"measurement": "inhibition at 5 min, 10 µM", "setting": "CYP3A4", "value": 22, "unit": "%"}, {"measurement": "microsomal CLint at 1 µM", "setting": "[4]", "value": 63, "unit": "µL/min/mg"}, {"measurement": "inhibition at 5 min, 10 µM", "setting": "CYP1A2", "value": 0, "unit": "%"}, {"measurement": "IC50", "setting": "[5]", "value": 3.3, "unit": "nM"}, {"measurement": "F", "setting": "Rattus norvegicus [9]", "value": 25, "unit": "%"}]}, {"smiles": "Cc1cccc(C(=O)N2CCC[C@H](c3nc(-c4ccccc4)no3)C2)c1Cl", "values": [{"measurement": "IC50", "setting": "[5]", "value": 28, "unit": "nM"}]}, {"smiles": "O=C(c1ccc(Cl)cc1)N1CCC[C@H](c2nc(-c3ccccc3)no2)C1", "values": [{"measurement": "IC50", "setting": "[5]", "value": 277, "unit": "nM"}]}, {"smiles": "O=C(c1cccc(Cl)c1)N1CCC[C@H](c2nc(-c3ccccc3)no2)C1", "values": [{"measurement": "IC50", "setting": "[5]", "value": 741, "unit": "nM"}]}, {"smiles": "O=C(c1ccccc1Cl)N1CCC[C@H](c2nc(-c3ccccc3)no2)C1", "values": [{"measurement": "IC50", "setting": "[5]", "value": 853, "unit": "nM"}]}, {"smiles": "Cc1ccccc1C(=O)N1CCC[C@H](c2nc(-c3ccccc3)no2)C1", "values": [{"measurement": "IC50", "setting": "[5]", "value": 435, "unit": "nM"}]}, {"smiles": "O=C(c1ccccc1)N1CCC[C@H](c2nc(-c3ccccc3)no2)C1", "values": [{"measurement": "IC50", "setting": "[5]", "value": 2370, "unit": "nM"}]}, {"smiles": "Cc1c(Cl)cccc1C(=O)N1CCC[C@H](c2noc(-c3ccccc3)n2)C1", "values": [{"measurement": "IC50", "setting": "[5]", "value": 107, "unit": "nM"}]}, {"smiles": "Cc1c(Cl)cccc1C(=O)N1CCC[C@H](c2nc(-c3ccccc3)no2)C1", "values": [{"measurement": "IC50", "setting": "[5]", "value": 27, "unit": "nM"}]}, {"smiles": "Cc1c(Cl)cccc1C(=O)N1CCC[C@H](n2nnc(-c3ccccc3)n2)C1", "values": [{"measurement": "IC50", "setting": "[5]", "value": 594, "unit": "nM"}]}, {"smiles": "Cc1c(Cl)cccc1C(=O)N1CCC[C@H](c2nnc(-c3ccccc3)[nH]2)C1", "values": [{"measurement": "IC50", "setting": "[5]", "value": 945, "unit": "nM"}]}, {"smiles": "Cc1c(Cl)cccc1C(=O)N1CCC[C@H](c2nnc(-c3ccccc3)o2)C1", "values": [{"measurement": "IC50", "setting": "[5]", "value": 1320, "unit": "nM"}]}]}
